Test results from patent US20070087376A1, “Splice variants of pre-mRNA transcripts as biomarkers in idiopathic neurodegenerative diseases” (priority 2004, published 2007).

Experiments:
[1] = system: NDUFS4 splice variants (NDUFS4 and NDUFS4-SV3 mRNA); experiment: NDUFS4 splice variant mRNA levels in MPTP-treated mice, RT-PCR; type: in vivo, mouse; settings: chronic MPTP treatment
Excerpt: (§1) Mice were then euthanized either at 3 days or 3 weeks after treatment. Two time periods were selected in order to characterizing splicing events in the blood over time. Controls for the acute group include mice treated with saline and, for the chronic experiments, mice treated with probenecid or saline.
(§2) Blood specimens for assaying RNA from the mice described in Example 1 above were obtained as follows. Mice were sacrificed by cervical dislocation and the heart lacerated to release the blood. Approximately 50 μl of 0.05 M EDTA, pH 8.0 was added to the chest cavity to prevent the blood from coagulating. Blood was collected in a sterile 1 ml syringe that was initially rinsed in 0.50 M EDTA pH 8.0.
(§3) RNA from blood samples obtained as described in Example 2 was separated on a 1.8% agarose gel and stained with 5 μl of ethidium bromide (10 mg/ml stock) diluted into 10 ml of a TAE buffer (pH 8.5 40 mM Tris.acetate, 2 mM Na2EDTA.2H2O. After staining, the RNA was visualized on a UV light box and the 18S RNA band was quantified. The image was captured using a Kodak EDAS290 system (Kodak, Rochester, N.Y.) and the Kodak 1D Image Analysis software (Kodak, Rochester, N.Y.) was used to quantify. Other similar cameras and analysis softwares will also work.
(§4) Splice variant mRNA was assayed using reverse transcriptase polymerase chain reactions (RT-PCR) as described in U.S. patent application Ser. No.: 11/215,842. PCR conditions for amplification of FosB, RGS9, AchE, Ania6 and NDUFS4 are the same as disclosed in U.S. patent application Ser. No.: 11/215,842 except different kits were used for FosB and RGS9 compared to the other 3 transcripts.
• 1. 95° C. 8 minutes • 2. 95° C. 30 seconds • 3. 57° C. 30 seconds • 4. 72° C. 30 seconds • 5. Repeat from step 2 35 times • 6. 72° C. 10 minutes RGS9 (SYBR green, Applied Biosystems, Foster City, Calif.) • 1. 95° C. 8 minutes • 2. 95° C. 30 seconds • 3. 54° C. 30 seconds • 4. 72° C. 30 seconds • 5. Repeat from step 2 35 times • 6. 72° C. 10 minutes AChE (go Taq Green, Promega, Madison, Wis.) • 1. 95° C. 5 minutes • 2. 95° C. 30 seconds • 3. 61° C. 30 seconds • 4. 72° C. […]

[2] = system: RGS9 splice variants (RGS9-1 and RGS9-2 mRNA); experiment: RGS9 splice variant mRNA levels in blood of MPTP-treated mice, RT-PCR; type: in vivo, mouse
Excerpt: as §1, §2
(§5) RNA from blood samples obtained as described in Example 2 was separated on a 1.8% agarose gel and stained with 5 μl of ethidium bromide (10 mg/ml stock) diluted into 10 ml of a TAE buffer (pH 8.5 40 mM Tris.acetate, 2 mM Na2EDTA.2H2O. After staining, the RNA was visualized on a UV light box and the 18S RNA band was quantified. The image was captured using a Kodak EDAS290 system (Kodak, Rochester, N.Y.) and the Kodak 1D Image Analysis software (Kodak, Rochester, N.Y.) was used to quantify. Other similar cameras and analysis softwares will also work. […]

[3] = system: Ania6 splice variants (Ania6 and Ania6a mRNA); experiment: Ania6 splice variant mRNA levels in blood of MPTP-treated mice, RT-PCR; type: in vivo, mouse; settings: chronic MPTP treatment
Excerpt: as §1, §2, §5

[4] = system: transcripts that have splice variants; settings: mptp study, cited from earlier work
[5] = system: FosB splice variants (FosB and ΔFosB mRNA); experiment: FosB splice variant mRNA levels in blood of MPTP-treated (Parkinsonian) mice, RT-PCR; type: in vivo, mouse; settings: vs vehicle
Excerpt: as §1, §2, §5

[6] = system: AChE splice variants (AChE-R and AChE-S mRNA); experiment: AChE splice variant mRNA levels in blood of MPTP-treated mice, RT-PCR; type: in vivo, mouse
Excerpt: as §1, §2, §3, §4
• 1. 95° C. 8 minutes • 2. 95° C. 30 seconds • 3. 57° C. 30 seconds • 4. 72° C. 30 seconds • 5. Repeat from step 2 35 times • 6. 72° C. 10 minutes RGS9 (SYBR green, Applied Biosystems, Foster City, Calif.) • 1. 95° C. 8 minutes • 2. 95° C. 30 seconds • 3. 54° C. 30 seconds • 4. 72° C. 30 seconds • 5. Repeat from step 2 35 times • 6. 72° C. 10 minutes AChE (go Taq Green, Promega, Madison, Wis.) • 1. 95° C. 5 minutes • 2. 95° C. 30 seconds • 3. 61° C. 30 seconds • 4. 72° C. 30 seconds • 5. Repeat from step 2 30 times • 6. 72° C. 5 minutes NDUFS4 (go Taq Green, Promega, Madison, Wis.) • 1. 95° C. 5 minutes • 2. 95° C. 30 seconds • 3. 64° C. 30 seconds • 4. 72° C. 30 seconds • 5. Repeat from step 2 30 times • 6. 72° C. 5 minutes Ania (go Taq Green, Promega, Madison, Wis. • 1. 95° C. 5 minutes • 2. 95° C. 30 seconds • 3. 57° C. 30 seconds • 4. 72° C. 30 seconds • 5. Repeat from step 2 35 times • 6. 72° C. 5 minutes Primers used in the PCR Assays: […]
We investigated whether the amount of the splice variants of acetylcholinesterase (AChE) changed after MPTP toxin treatment. AChE hydrolyzes acetylcholine (ACh) and thereby functions to terminate Ach-mediated neurotransmission. In many neuropathologies, the characteristics of AChE are modified in the central nervous system. We looked at the AChE-S and ACHE-R splice variants. The AChE-S mRNA produces the canonical synaptic tetrameric form of the enzyme. AChE-S is formed by skipping exon 5 such that the final mRNA is composed of exons 1-4 and exon 6 (FIG. 5). The protein produced from this transcript has a cysteine-containing carboxyl-terminus that allows for the formation of the tetramer. AChE-R, produces a read-through transcript in which a downstream splice donor is spliced to the intron 4 3′ splice site such that exon 5 is included in the mRNA (FIG. 6). This produces a protein with a different carboxyl-terminus than the synaptic form. […]

[7] = chronic MPTP treatment, 3 days and 3 weeks after

CN1CC=C(c2ccccc2)CC1 [MPTP, 1-methyl-4-phenyl-1,2,3,6-tetrahydropyridine]
NDUFS4 mRNA/18S RNA [1]: decreases | NDUFS4-SV3 mRNA/18S RNA ([1]; 3 days and 3 weeks after): decreases after chronic MPTP treatment and remains lower for 3 weeks | NDUFS4-SV3 mRNA/NDUFS4 mRNA ([1]; 3 days and 3 weeks after): decreases after chronic MPTP treatment and remains lower for 3 weeks | RGS9-2 mRNA/18S RNA ([2]; acute MPTP treatment): decreases | RGS9-2 mRNA/RGS9-1 [2, 7]: decreases after chronic MPTP treatment and remains lower for 3 weeks | Ania6a mRNA/18S RNA [3]: increases | Ania6 mRNA/18S RNA ([3]; 3 days and 3 weeks after): decreases after chronic MPTP treatment and remains lower for 3 weeks | Change of BAX M, isoform-a transcript ([4]; function Apoptosis): Up | Change of Cyclin B2 transcript ([4]; function Cell cycle): Down | Change of Alpha-synuclein transcript ([4]; function PD-associated): Up | Change of Ach N receptor transcript ([4]; function Receptors): Up | Change of IL-1 recept II transcript ([4]; function Receptors): Up | Change of IL-2 rp-G transcript ([4]; function Receptors): Up | Change of IL-10 transcript ([4]; function Receptors): Up | Change of Gtase transcript ([4]; function Stress): Down | FosB mRNA/18S RNA ([5]; acute MPTP treatment (20 mg/kg, 4 times, every 2 hours), euthanized 3 days later): decreases | ΔFosB mRNA/18S RNA ([5]; chronic MPTP (25 mg/kg s.c.) and probenecid, twice each week for 5 weeks): decreases | AChE-R mRNA/18S RNA ([6]; acute MPTP treatment): increases | AChE-R mRNA/AChE-S mRNA ([6]; acute MPTP treatment): increases | AChE-R mRNA/AChE-S mRNA ([6]; chronic MPTP treatment): decreases | AChE-S mRNA/18S RNA ([6]; chronic MPTP treatment): increases | AChE-R mRNA/18S RNA [6, 7]: decreases and remains lower for 3 weeks
